Assay results: patent publication US8697692B2, “Pyrrolo [3,2-c] pyridine-4-one 2-indolinone protein kinase inhibitors” (Shanghai Hengrui Pharmaceutical Co., Ltd., priority 2006, dated 2014)

Biological target: T1, HER-2/ErbB2 kinase (Homo sapiens, UniProt P04626)
T1 construct: purchased Invitrogen corporation #PV3366
Assay: HER-2 Kinase Assay (ELISA)
Assay type: biochemical
Conditions: 20 μM ATP, 25° C. 60 minutes
Procedure: An enzyme linked immunosorbent assays (ELISA) was conducted to measure the kinase activity of HER-2 in vitro.
a. Wash Buffer (PBS-T Buffer): 1×PBS (137 mM NaCl; 2.7 mM KCl, 4.3 mM Na2HPO4, 1.4 mM KH2PO4, adjust the pH to 7.2) and 0.05% Tween-20.
b. 1% Bovine Serum Albumin (BSA, Calbiochem #136593) in PBS-T.
c. Stop Buffer: 50 mM EDTA, pH 8.0.
d. DELFIA® Europium-labeled Anti-mouse IgG (PerkinElmer Life Sciences #AD0124).
e. DELFIA® Enhancement Solution (PerkinElmer Life Sciences #1244-105).
f. DELFIA® Streptavidin coated, 96-well, yellow plate (PerkinElmer Life Sciences #AAAND-0005).
g. HER-2/ErbB2 kinase (Invitrogen corporation #PV3366).
h. 10 mM ATP solution (Cell signaling technology #9804).
i. FLT3 (Tyr589) Biotinylated Peptide (Cell signaling technology #1305).
j. Phospho-Tyrosine Mouse mAb (P-Tyr-100) (Cell signaling technology #9411).
k. HTScan™ Tyrosine Kinase Buffer (4×)
(Cell signaling technology #9805).
l. 1.25 M DTT (1000×) (Cell signaling technology).
The following protocol was used:
1. Dilute test compound with DMSO to the desired final assay concentration. Add 1 μl test compound for every assay, to the negative control.
2. Dilute 6 μM substrate peptide (Tyr589) 1:1 with dH2O, add 15 μl to every assay.
3. Immediately transfer HER-2 enzyme from −80° C. to ice. Allow enzyme to thaw on ice.
4. Take 4.5 μg HER-2 enzyme to the enzyme tube.
5. Add 10 μl of DTT (1.25 M) to 2.5 ml of 4×HTScan™ Tyrosine Kinase Buffer (240 mM HEPES pH 7.5, 20 mM MgCl2, 20 mM MnCl2, 12 μM Na3VO4) to make DTT/Kinase buffer.
6. Transfer 0.75 ml of DTT/Kinase buffer to each enzyme tube to make 4× reaction cocktail. Add 7.5 μl 4× reaction cocktail to every assay.
7. Add 4 μl ATP (10 mM) to 496 μl dH2O, take 7.5 μl for every assay. Final Assay Conditions for a 30 μl Reaction
Incubate reaction tube at 25° C. for 60 minutes. 9. Add 30 μl/assay stop buffer (50 mM EDTA, pH 8.0) to stop the reaction. 10. Transfer 25 μl of each reaction and 75 μl dH2O/well to a 96-well streptavidin coated plate and incubate, with shaking at room temperature for 60 minutes. 11. Wash three times with 200 μl/well PBS-T buffer. Pat plate on paper towel to remove excess liquid. 12. Dilute primary antibody, Phospho-Tyrosine mAb (P-Tyr-100), 1:1000 in PBS-T buffer with 1% BSA. Add 100 μl diluted primary antibody to each well. 13. Incubate, with shaking at room temperature for 60 minutes. 14. Wash as described above in step 11. 15. Dilute Europium labeled anti-mouse IgG 1:500 in PBS-T buffer with 1% BSA. Add 100 μl diluted antibody to each well. 16. Incubate, with shaking at room temperature for 30 minutes. 17. Wash five times with 200 μl/well PBS-T buffer. Pat plate on paper towel to remove excess liquid. 18. Add 100 μl/well DELFIA® Enhancement Solution. 19. Incubate, with shaking at room temperature for 5 minutes. 20. Detect 615 nm fluorescence emission with appropriate Time-Resolved Plate Reader.
Calculate the inhibition rate: IR (%)=100−100*(X−B)/(N−B)
X=the fluorescence value of the well contained test compound
The IC50 value can be derived from the IRs of compounds at different concentration gradients.

T1 sequence (P04626 23-1255): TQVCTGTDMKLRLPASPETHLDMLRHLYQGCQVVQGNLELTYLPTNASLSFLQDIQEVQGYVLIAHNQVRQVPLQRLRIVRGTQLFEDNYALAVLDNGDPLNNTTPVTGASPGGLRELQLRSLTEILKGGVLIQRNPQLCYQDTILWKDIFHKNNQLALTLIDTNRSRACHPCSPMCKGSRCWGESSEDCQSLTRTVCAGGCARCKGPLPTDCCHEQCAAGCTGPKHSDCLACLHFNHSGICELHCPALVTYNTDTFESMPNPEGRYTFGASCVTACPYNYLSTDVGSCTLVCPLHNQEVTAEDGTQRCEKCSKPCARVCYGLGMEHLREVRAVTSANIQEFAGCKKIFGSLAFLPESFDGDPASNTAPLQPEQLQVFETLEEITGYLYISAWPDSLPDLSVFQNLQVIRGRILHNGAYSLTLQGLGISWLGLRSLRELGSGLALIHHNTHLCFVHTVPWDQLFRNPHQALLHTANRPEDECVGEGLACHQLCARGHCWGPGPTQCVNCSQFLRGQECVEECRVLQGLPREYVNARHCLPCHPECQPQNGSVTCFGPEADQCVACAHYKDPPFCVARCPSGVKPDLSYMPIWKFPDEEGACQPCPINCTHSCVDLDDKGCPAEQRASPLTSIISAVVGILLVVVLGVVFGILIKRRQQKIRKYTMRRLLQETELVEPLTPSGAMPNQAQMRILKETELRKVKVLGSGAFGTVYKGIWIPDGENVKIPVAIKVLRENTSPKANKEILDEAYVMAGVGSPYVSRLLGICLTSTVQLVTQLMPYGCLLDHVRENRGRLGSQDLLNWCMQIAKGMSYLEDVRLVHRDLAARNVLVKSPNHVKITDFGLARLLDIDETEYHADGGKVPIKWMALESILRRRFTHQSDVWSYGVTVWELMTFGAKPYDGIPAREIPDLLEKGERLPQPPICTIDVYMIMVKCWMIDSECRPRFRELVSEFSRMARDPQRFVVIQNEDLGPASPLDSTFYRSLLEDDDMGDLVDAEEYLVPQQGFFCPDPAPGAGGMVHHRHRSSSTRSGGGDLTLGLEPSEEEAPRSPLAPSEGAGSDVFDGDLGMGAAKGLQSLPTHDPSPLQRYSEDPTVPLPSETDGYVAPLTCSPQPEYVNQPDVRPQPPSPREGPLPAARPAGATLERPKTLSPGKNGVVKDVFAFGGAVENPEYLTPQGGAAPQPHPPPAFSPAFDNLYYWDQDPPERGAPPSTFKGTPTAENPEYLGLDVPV

SMILES	IC50 [nM]
CCN(CC)CCN1CCc2[nH]c(/C=C3\C(=O)Nc4ncnc(Nc5ccc(F)c(Cl)c5)c43)c(C)c2C1=O [Example 12, 4-(3-Chlor O-4-fluoro-phenylamino)-5-[5-(2-diethylamino-ethyl)-3-methyl-4-oxo-4,5,6,7-tetrahydro-1H-pyrrolo[3,2-c]pyridine-2-ylmethylene]-5,7-dihydro-pyrrolo[2,3-d]pyrimidin-6-one]	90
Cc1c(/C=C2\C(=O)Nc3ncnc(Nc4ccc(F)c(Cl)c4)c32)[nH]c2c1C(=O)N(CCN1CCOCC1)CC2 [Example 24, 4-(3-Chloro-4-fluoro-phenylamino)-5-[3-methyl-5-(2-morpholin-4-yl-ethyl)-4-oxo-4,5,6,7-tetrahydro-1H-pyrrolo[3,2-c]pyridine-2-ylmethylenene]-5,7-dihydro-pyrrolo[2,3-d]pyrimidin-6-one]	830
Cc1c(/C=C2\C(=O)Nc3cccc(CCO)c32)[nH]c2c1C(=O)N(CCN1CCOCC1)CC2 [Example 42, 2-[4-(2-Hydroxy-ethyl)-2-oxo-1,2-dihydro-indol-3-ylidenemethyl]-3-methyl-5-(2-morpholin-4-yl-ethyl)-1,5,6,7-tetrahydro-pyrrolo[3,2-c]pyridin-4-one]	41100
Cc1c(/C=C2\C(=O)Nc3cccc(C4CCNCC4)c32)[nH]c2c1C(=O)N(CCN1CCOCC1)CC2 [Example 52, 3-Methyl-5-(2-morpholin-4-yl-ethyl)-2-(2-oxo-4-piperidin-4-yl-1,2-dihydro-indol-3-ylidenemethyl)-1,5,6,7-tetrahydro-pyrrolo[3,2-c]pyridin-4-one]	8320

Now from value to compound:

IC50 [nM]	SMILES
980	CCN(CC)CCN1CCc2[nH]c(/C=C3\C(=O)Nc4cccc(C5CCNCC5)c43)c(C)c2C1=O [Example 31, 5-(2-Diethylamino-ethyl)-3-methyl-2-(2-oxo-4-piperidin-4-yl-1,2-dihydro-indol-3-ylidenemethyl)-1,5,6,7-tetrahydro-pyrrolo[3,2-c]pyridin-4-one]
270	CCN(CC)CCN1CCc2[nH]c(/C=C3\C(=O)Nc4cccc(-c5cccc(F)c5F)c43)c(C)c2C1=O [Example 39, 5-(2-diethylamino-ethyl)-2-[4-(2,3-difluoro-phenyl)-2-oxo-1,2-dihydro-indol-3-ylidenemethyl]-3-methyl-1,5,6,7-tetrahydro-pyrrolo[3,2-c]pyridin-4-one]
720	Cc1c(/C=C2\C(=O)Nc3cccc(-c4cccc(F)c4F)c32)[nH]c2c1C(=O)N(CCN1CCCC1)CC2 [Example 59, 2-[4-(2,3-Difluoro-phenyl)-2-oxo-1,2-dihydro-indol-3-ylidenemethyl]-3-methyl-5-(2-pyrrolidin-1-yl-ethyl)-1,5,6,7-tetrahydro-pyrrolo[3,2-c]pyridin-4-one]
